Assay results as given in US20230051589A1, “COMPOUNDS AND COMPOSITIONS FOR TREATING CONDITIONS ASSOCIATED WITH NLRP ACTIVITY” (Novartis AG, priority 2018, published 2023).

test system: IL-1β production in PMA-differentiated THP-1 cells; assay: IL-1β production in PMA-differentiated THP-1 cells stimulated with gramicidin (hTHP-1 assay, 2% fetal bovine serum; Procedures 1-3); assay type: cell-based, human; conditions: Homo sapiens, THP-1, hTHP-1 assay containing 2% fetal bovine serum, Table B2, class symbols; read-out: IC50
Summary of the method: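 PMA-primed THP-1 cells (20 ng/ml PMA, 16-18 h) in RPMI with 2% FBS were pre-incubated with compounds for 1 h, from 100 μM downward in 3-fold steps (0.37% DMSO final), then stimulated with 5 μM gramicidin for 2 h. IL-1β in the supernatant was quantified by HTRF.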

IC50 [nM] | SMILES
1000 to 5000 | NS(=O)(=NC(=O)Nc1c2c(cc3c1CCC3)CCC2)c1cccc(CN2CCOCC2)c1 (single isomer, unassigned) [Example 550, (R) or (S)-N′-((1,2,3,5,6,7-hexahydro-s-indacen-4-yl)carbamoyl)-3-(morpholinomethyl) benzenesulfonimidamide]

same assay, conditions: Homo sapiens, THP-1, hTHP-1 assay containing 2% fetal bovine serum, Table B2, given as bound; read-out: IC50

IC50 [nM] | SMILES
> 30000 | NS(=O)(=NC(=O)Nc1c2c(cc3c1CCC3)CCC2)c1cccc(CN2CCOCC2)c1 (single isomer, unassigned) [Example 551, (S) or (R)-N′-((1,2,3,5,6,7-hexahydro-s-indacen-4-yl)carbamoyl)-3-(morpholinomethyl) benzenesulfonimidamide]
> 30000 | CC(C)(O)c1ncc(S(N)(=O)=NC(=O)Nc2cc3c(c4c2CCC4=O)CCC3)s1 (single isomer, unassigned) [Example 564, (S) or (R)-2-(2-hydroxypropan-2-yl)-N′-((1-oxo-1,2,3,6,7,8-hexahydro-as-indacen-4-yl)carbamoyl) thiazole-5-sulfonimidamide]

same assay, conditions: hTHP-1 assay containing 2% fetal bovine serum, Table B2, class symbols; read-out: IC50

IC50 [nM] | SMILES
5000 to 30000 | CC(C)(O)c1cc(F)c(S(N)(=O)=NC(=O)Nc2c3c(cc4c2C(=O)CC4)CCC3)s1 (single isomer, unassigned) [Example 538, (S) or (R)-3-fluoro-5-(2-hydroxypropan-2-yl)-N′-((3-oxo-1,2,3,5,6,7-hexahydro-s-indacen-4-yl)carbamoyl) thiophene-2-sulfonimidamide]
40 to 200 | CC(C)(O)c1cc(F)c(S(N)(=O)=NC(=O)Nc2c3c(cc4c2C(=O)CC4)CCC3)s1 (single isomer, unassigned) [Example 539, (R) or (S)-3-fluoro-5-(2-hydroxypropan-2-yl)-N′-((3-oxo-1,2,3,5,6,7-hexahydro-s-indacen-4-yl)carbamoyl) thiophene-2-sulfonimidamide]
1000 to 5000 | CC(C)(O)c1csc(S(N)(=O)=NC(=O)Nc2c3c(c(C#N)c4c2CCC4)CCC3)n1 (single isomer, unassigned) [Example 540, (S) or (R)-N′-((8-cyano-1,2,3,5,6,7-hexahydro-s-indacen-4-yl)carbamoyl)-4-(2-hydroxypropan-2-yl)thiazole-2-sulfonimidamide]
40 to 200 | CC(C)(O)c1csc(S(N)(=O)=NC(=O)Nc2c3c(c(C#N)c4c2CCC4)CCC3)n1 (single isomer, unassigned) [Example 541, (R) or (S)-N′-((8-cyano-1,2,3,5,6,7-hexahydro-s-indacen-4-yl)carbamoyl)-4-(2-hydroxypropan-2-yl)thiazole-2-sulfonimidamide]
1000 to 5000 | CC(C)(O)c1nc(CO)c(S(N)(=O)=NC(=O)Nc2c3c(cc4c2CCC4)CCC3)s1 (single isomer, unassigned) [Example 542, (S) or (R)-N′-((1,2,3,5,6,7-hexahydro-s-indacen-4-yl)carbamoyl)-4-(hydroxymethyl)-2-(2-hydroxypropan-2-yl)thiazole-5-sulfonimidamide]
8 to 40 | CC(C)(O)c1nc(CO)c(S(N)(=O)=NC(=O)Nc2c3c(cc4c2CCC4)CCC3)s1 (single isomer, unassigned) [Example 543, (R) or (S)-N′-((1,2,3,5,6,7-hexahydro-s-indacen-4-yl)carbamoyl)-4-(hydroxymethyl)-2-(2-hydroxypropan-2-yl)thiazole-5-sulfonimidamide]
5000 to 30000 | CC(C)(O)c1ccc(S(N)(=O)=NC(=O)Nc2c3c(c(C#N)c4c2CCC4)CCC3)cn1 (single isomer, unassigned) [Example 544, (S) or (R)-N′-((8-cyano-1,2,3,5,6,7-hexahydro-s-indacen-4-yl)carbamoyl)-6-(2-hydroxypropan-2-yl)pyridine-3-sulfonimidamide]
40 to 200 | CC(C)(O)c1ccc(S(N)(=O)=NC(=O)Nc2c3c(c(C#N)c4c2CCC4)CCC3)cn1 (single isomer, unassigned) [Example 545, (R) or (S)-N′-((8-cyano-1,2,3,5,6,7-hexahydro-s-indacen-4-yl)carbamoyl)-6-(2-hydroxypropan-2-yl)pyridine-3-sulfonimidamide]
200 to 1000 | NS(=O)(=NC(=O)Nc1c2c(cc3c1CC3)CCC2)c1cnn2c1OCCC2 (single isomer, unassigned) [Example 546, (R) or (S)-N′-((2,4,5,6-tetrahydro-1H-cyclobuta[f]inden-3-yl)carbamoyl)-6,7-dihydio-5H-pyrazolo[5,1-b][1,3]oxazine-3-suIfonimidamide]
1000 to 5000 | NS(=O)(=NC(=O)Nc1c2c(cc3c1CC3)CCC2)c1cnn2c1OCCC2 (single isomer, unassigned) [Example 547, (S) or (R)-N′-((2,4,5,6-tetrahydro-1H-cyclobuta[f]inden-3-yl)carbamoyl)-6,7-dihydio-5H-pyrazolo[5,1-b][1,3]oxazine-3-sulfonimidamide]
40 to 200 | CC(C)n1nc(S(N)(=O)=NC(=O)Nc2c3c(c(C#N)c4c2CCC4)CCC3)cc1CO (single isomer, unassigned) [Example 548, (R) or (S)-N′-((8-cyano-1,2,3,5,6,7-hexahydro-s-indacen-4-yl)carbamoyl)-5-(hydroxymethyl)-1-isopropyl-1H-pyrazole-3-sulfonimidamide]
5000 to 30000 | CC(C)n1nc(S(N)(=O)=NC(=O)Nc2c3c(c(C#N)c4c2CCC4)CCC3)cc1CO (single isomer, unassigned) [Example 549, (S) or (R)-N′-((8-cyano-1,2,3,5,6,7-hexahydro-s-indacen-4-yl)carbamoyl)-5-(hydroxymethyl)-1-isopropyl-1H-pyrazole-3-sulfonimidamide]
40 to 200 | CC(C)(O)c1cc(S(N)(=O)=NC(=O)Nc2c3c(cc4c2CCC4)CCC3)sc1-c1ccccc1 (single isomer, unassigned) [Example 552, (R) or (S)-N′-((1,2,3,5,6,7-hexahydro-s-indacen-4-yl)(2-4-carbamoyl)-hydroxypropan-2-yl)-5-phenylthiophene-2-sulfonimidamide]
5000 to 30000 | CC(C)(O)c1cc(S(N)(=O)=NC(=O)Nc2c3c(cc4c2CCC4)CCC3)sc1-c1ccccc1 (single isomer, unassigned) [Example 553, (S) or (R)-N′-((1,2,3,5,6,7-hexahydro-s-indacen-4-yl)carbamoyl)-(4-2-hydroxypropan-2-yl)-5-phenylthiophene-2-sulfonimidamide]
5000 to 30000 | CC(C)c1cc(S(N)(=O)=NC(=O)Nc2c3c(cc4c2CCC4)CCC3)c(F)cn1 (single isomer, unassigned) [Example 554, (S) or (R)-5-fluoro-N′-((1,2,3,5,6,7-hexahydro-s-indacen-4-yl)carbamoyl)-2-isopropylpyridine-4-sulfonimidamide]
200 to 1000 | CC(C)c1cc(S(N)(=O)=NC(=O)Nc2c3c(cc4c2CCC4)CCC3)c(F)cn1 (single isomer, unassigned) [Example 555, (R) or (S)-5-fluoro-N′-((1,2,3,5,6,7-hexahydro-s-indacen-4-yl)carbamoyl)-2-isopropylpyridine-4-sulfonimidamide]
5000 to 30000 | CC(C)(O)c1nc(S(N)(=O)=NC(=O)Nc2c3c(cc4c2CCC4)CCC3)cs1 (single isomer, unassigned) [Example 556, (S) or (R)-N′-((1,2,3,5,6,7-hexahydro-s-indacen-4-yl)carbamoyl)-2-(2-hydroxypropan-2-yl)thiazole-4-sulfonimidamide]
40 to 200 | CC(C)(O)c1nc(S(N)(=O)=NC(=O)Nc2c3c(cc4c2CCC4)CCC3)cs1 (single isomer, unassigned) [Example 557, (R) or (S)-N′-((1,2,3,5,6,7-hexahydro-s-indacen-4-yl)cartoamoyl)-2-(2-hydroxypropan-2-yl)thiazole-4-sulfoni midamide]
40 to 200 | CN1CCc2cc(S(N)(=O)=NC(=O)Nc3c4c(cc5c3CCC5)CCC4)sc2C1 (single isomer, unassigned) [Example 558, (R) or (S)-N′-((1,2,3,5,6,7-hexahydro-5-indacen-4-yl)carbamoyl)-6-methyl-4,5,6,7-tetrahydrothieno [2,3-c]pyridine-2-sulfonimidamide]
1000 to 5000 | CN1CCc2cc(S(N)(=O)=NC(=O)Nc3c4c(cc5c3CCC5)CCC4)sc2C1 (single isomer, unassigned) [Example 559, (S) or (R)-N′-((1,2,3,5,6,7-hexahydro-s-indacen-4-yl)carbamoyl)-6-methyl-4,5,6,7-tetrahydrothieno[2,3-c]pyridine-2-sulfonimidamide]
8 to 40 | CC(C)(O)c1csc(S(N)(=O)=NC(=O)Nc2c3c(cc4c2CC4)CCC3)c1 (single isomer, unassigned) [Example 560, (R) or (S)-4-(2-hydroxypropan-2-N′-((2,4,5,6-tetrahydro-1H-cyclobuta[f]inden-3 - y])carbamoyl) thiophene-2-sulfonimidamide]
200 to 1000 | CC(C)(O)c1csc(S(N)(=O)=NC(=O)Nc2c3c(cc4c2CC4)CCC3)c1 (single isomer, unassigned) [Example 561, (S) or (R)-4-(2-hydroxypropan-2-N′-((2,4,5,6-tetrahydro-1H-cyclobuta[f]inden-3 - y])carbamoyl) thiophene-2-sulfonimidamide]
1000 to 5000 | Cc1c(C2CC2)cc2c(c1NC(=O)N=S(N)(=O)c1cnc(C(C)(C)O)s1)CCC2 (single isomer, unassigned) [Example 562, (S) or (R)-N′-((6-cyclopropyl-5-methyl-2,3-dihydro-1H-inden-4-yl)carbamoyl)-2-(2-hydroxypropan-2-yl)thiazole-5-sulfonimidamide]
40 to 200 | Cc1c(C2CC2)cc2c(c1NC(=O)N=S(N)(=O)c1cnc(C(C)(C)O)s1)CCC2 (single isomer, unassigned) [Example 563, (R) or (S)-N′-((6-cyclopropyl-5-methyl-2,3-dihydro-1H-inden-4-yl)carbamoyl)-2-(2-hydroxypropan-2-yl)thiazole-5-sulfonimidamide]
